{"source": "patent US20110150980A1", "about": "“CGRP ANALOG” (VasoGenix Pharmaceuticals, Inc., priority 2009, published 2011)", "molecules": {"B1": {"name": "Peptide III, [Ser25] h-α-CGRP (peptide)", "peptide": "ACDTATCVTHRLAGLLSRSGGVVKSNFVPTNVGSKAF-NH2", "modifications": "disulfide 2-7 (inferred); also: acetate salt"}, "B2": {"name": "Peptide V, [Asn3, Ser25] h-α-CGRP (peptide)", "peptide": "ACNTATCVTHRLAGLLSRSGGVVKSNFVPTNVGSKAF-NH2", "modifications": "disulfide 2-7 (inferred); also: acetate salt"}, "B3": {"name": "Peptide IX, [Asp14, Ser25] h-α-CGRP (peptide)", "peptide": "ACDTATCVTHRLADLLSRSGGVVKSNFVPTNVGSKAF-NH2", "modifications": "disulfide 2-7 (inferred); also: acetate salt"}}, "key": {"patients": {"test_system": "patients", "conditions": "cited from earlier work"}, "CRLR/RAMP1 receptor [1]": {"target": "T1, CRLR/RAMP1 receptor (Homo sapiens, UniProt O60894+Q16602)", "T1 construct": "All of the full-length cDNAs were subcloned into pcDNA3.1 expression vectors; expressed in transfected cells; host or cells: HEK293T, transient calcium phosphate transfection, pcDNA3.1 vectors", "T1 sequence (Q16602 23-461)": "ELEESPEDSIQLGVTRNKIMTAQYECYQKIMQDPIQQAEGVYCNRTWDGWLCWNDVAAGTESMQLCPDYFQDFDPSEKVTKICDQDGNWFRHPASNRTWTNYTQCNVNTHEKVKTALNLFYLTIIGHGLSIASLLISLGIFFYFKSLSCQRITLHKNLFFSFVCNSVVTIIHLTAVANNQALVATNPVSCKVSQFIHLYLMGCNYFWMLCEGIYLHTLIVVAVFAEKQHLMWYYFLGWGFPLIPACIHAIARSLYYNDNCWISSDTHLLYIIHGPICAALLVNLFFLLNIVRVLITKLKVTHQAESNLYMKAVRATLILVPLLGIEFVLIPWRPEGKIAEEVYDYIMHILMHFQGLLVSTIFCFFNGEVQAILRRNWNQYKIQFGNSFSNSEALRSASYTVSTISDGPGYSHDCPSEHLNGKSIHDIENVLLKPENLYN", "T1 sequence (O60894 27-148)": "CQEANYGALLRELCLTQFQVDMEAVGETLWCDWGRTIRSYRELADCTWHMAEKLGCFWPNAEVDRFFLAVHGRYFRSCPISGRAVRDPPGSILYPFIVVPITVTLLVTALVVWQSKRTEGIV", "assay": "CRE-luciferase assay in HEK293T cells transfected with CRLR and RAMP1", "type": "cell-based", "conditions": "for activity and potency in binding to the CGRP receptor, CRE-Luciferase assay: compared to h-α-CGRP and h-β-CGRP as controls", "excerpt": "The expression vectors for RAMP1, RAMP2, RAMP3, CRLR, CRE-Luc and SRE-Luc were constructed as previously described (McLatchie L. M., et al. (1998) Nature 393:333-339). Human CRLR, RAMP1, and RAMP2 full-length cDNAs were cloned by RT-PCR using RNA obtained from HEK293T cells and CRLR, RAMP1, and RAMP2-specific primers. Human RAMP3 full-length cDNAs were cloned by RT-PCR using RNA from human kidney and RAMP3 specific primers. All of the full-length cDNAs were subcloned into pcDNA3.1 expression vectors.\nHuman embryonic kidney 293T cells (HEK293T) were maintained in Dulbecco's modified Eagle's medium supplemented with 10% fetal calf serum, 2 mM glutamine, […], at 37° C. in a humidified atmosphere of 95% air and 5% CO2. Transient transfections were performed using calcium phosphate co-precipitation (Mellon P. L., et al. (1981) Cell 27:279-288). Cells in six-well plates or 100-mm Petri dishes were grown to 70% confluence and transfected with 0.1 μg of DNA for CRLR, 0.05 μg for RAMPs or 1 μg for CRE-Luc and SRE-Luc per cm^2. The total amount of DNA transfected in each condition was kept constant by adding empty pcDNA3.1 vector when needed. Twenty hours after transfection, the medium was replaced with fresh medium containing 5 mM sodium butyrate for 24 h and then replaced for an additional 24 h with fresh medium without sodium butyrate. All of the experiments were performed 72 h after transfection to allow correct glycosylation and cell surface targeting of CRLR and RAMPs.\nAfter exposure to various concentrations of CGRP or the CGRP analogs, the cells were lysed and assayed for CRE- or SRE-luciferase activity using the luciferase assay system (Promega), and luminescence was measured using a 96-well luminometer.\nThe mechanism of action for CGRP at the CRLR/RAMP1 receptor is known to up-regulate cAMP through the gs pathway, and to a lesser extent [Ca^2+] through the gq pathway. […] It is the cAMP pathway that is the primary mechanism of action of CGRP for vasodilation, cardio/renoprotection and immunomodulation."}, "[2]": {"test_system": "sedated Non Human Primate", "assay": "IV infusion in the sedated Non Human Primate: blood pressure and heart rate (Example 1)", "type": "in vivo", "conditions": "at the 28 ng dose"}, "CRLR/RAMP1 receptor [3]": {"target": "CRLR/RAMP1 receptor (human, UniProt Q16602 23-461; O60894 27-148)", "sequence (Q16602 23-461, chain 1 of 2)": "as the sequence (Q16602 23-461) above", "sequence (O60894 27-148, chain 2 of 2)": "as the sequence (O60894 27-148) above", "assay": "cell-based or functional assay"}, "[4]": {"conditions": "Anand et al.: short-term IV infusions (10 or 20 minutes) at 0.8, 3.2, or 16 ng/kg/min"}, "[5]": {"conditions": "Sekhar et al.: 8 ng/kg/min by IV infusion for 8 hours"}, "[6]": {"conditions": "Stephenson et al.: 600 ng/min, 2-8 hour infusions for two consecutive days"}}, "note": "Read-outs that look alike come from different tables or passages of the source. Bridges are numbered along the chain shown (N, C = ends). Where no end group is shown, it is not given here."}
{"molecule": "CGRP", "values": [{"measurement": "hemodynamic effects", "setting": "patients; [4]", "result": "beneficial hemodynamic effects such as decreased systemic vascular resistance and increase in cardiac output"}, {"measurement": "tachycardia", "setting": "patients; [4]", "result": "no tachycardia observed"}, {"measurement": "renal blood flow and glomerular filtration", "setting": "patients; Sekhar et al.: 8 ng/kg/min by IV infusion for 8 hours, during treatment", "result": "increased"}, {"measurement": "hemodynamic effects", "setting": "patients; [5]", "result": "beneficial hemodynamic effects such as decreased pulmonary and systemic arterial pressure, decreased vascular resistance and increased cardiac output"}, {"measurement": "time after stopping infusion within which hemodynamic effects were lost", "setting": "patients; [5]", "result": "≤ 30", "unit": "min"}, {"measurement": "side effects of pulsed therapy", "setting": "patients; [6]", "result": "unfavorable side effects of tachycardia and neurohumoral response were also observed"}, {"measurement": "tolerability and hemodynamic functions, pulsed therapy", "setting": "patients; [6]", "result": "well tolerated and was observed to improve hemodynamic functions such as left ventricular function"}, {"measurement": "tolerability of continuous infusion therapy", "setting": "patients; Stephenson et al.: 600 ng/min, 48-hour continuous IV-infusion", "result": "infusion was discontinued after 28 hours in 3 out of the 6 patients due to nausea, diarrhea, and/or severe facial flushing"}]}
{"molecule": "Cyc-ACDTATCVTHRLADLLSRSGGVVKSNFVPTNVGSKAF-NH2 (disulfide 2-7 (inferred)) [Peptide IX]", "values": [{"measurement": "potency in CRE-Luciferase assay", "setting": "CRLR/RAMP1 receptor [1]; at a concentration of 10^−10 molar", "result": "more potent"}, {"measurement": "activity and potency in binding to the CGRP receptor, CRE-Luciferase assay", "setting": "CRLR/RAMP1 receptor [1]", "result": "as equally active and potent as h-α-CGRP and h-β-CGRP"}, {"measurement": "Heart rate (HR) effect", "setting": "[2]", "result": "increased heart rate but less than CGRP"}]}
{"molecule": "Cyc-ACDTATCVTHRLAGLLSRSGGVVKSNFVPTNVGSKAF-NH2 (disulfide 2-7 (inferred)) [Peptide III]", "values": [{"measurement": "activity and potency in binding to the CGRP receptor, CRE-Luciferase assay", "setting": "CRLR/RAMP1 receptor [1]", "result": "as equally active and potent as h-α-CGRP and h-β-CGRP"}, {"measurement": "Heart rate (HR) effect", "setting": "[2]", "result": "increased heart rate but less than CGRP"}]}
{"molecule": "B1", "values": [{"measurement": "CRE-Luciferase assay: concentration at which receptors were saturated", "setting": "CRLR/RAMP1 receptor [3]", "result": 100, "unit": "nM"}]}
{"molecule": "B2", "values": [{"measurement": "CRE-Luciferase assay: concentration at which receptors were saturated", "setting": "CRLR/RAMP1 receptor [3]", "result": 100, "unit": "nM"}]}
{"molecule": "B3", "values": [{"measurement": "CRE-Luciferase activity at 10^-10 molar, fold over analogs III and V, h-α-CGRP and h-β-CGRP", "setting": "CRLR/RAMP1 receptor [3]", "result": 1.5, "unit": "fold"}, {"measurement": "CRE-Luciferase assay: concentration at which receptors were saturated", "setting": "CRLR/RAMP1 receptor [3]", "result": 100, "unit": "nM"}]}
